Earlier results as cited in patent publication US20110086355A1, “BRCA1 mRNA EXPRESSION LEVELS PREDICT SURVIVAL IN BREAST CANCER PATIENTS TREATED WITH NEOADJUVANT CHEMOTHERAPY” (PANGAEA BIOTECH, S.A., priority 2008, published 2011).

Tests used:
[1] = tested on: SKOV-3 human ovarian cancer cell line
breast cancer cell line = settings: BRCA1 mRNA determined by RT-QPCR
[2] = tested on: HCC1937 breast cancer cell line; settings: wild-type BRCA1 reconstituted vs BRCA1-negative HCC1937
[3] = tested on: Mouse models carrying conditional disruption of BRCA1

SMILES | change of sensitivity after decreased BRCA1 mRNA expression (breast cancer cell line) | sensitivity of BRCA1-disrupted mouse models [3] | further results
N.N.[Cl][Pt][Cl] [cisplatin] | greater sensitivity | – | resistance after upregulation of BRCA1 expression [1]: increased cisplatin resistance; increase in resistance [2]: 20 fold
CC(=O)O[C@H]1C(=O)[C@@]2(C)[C@H]([C@H](OC(=O)c3ccccc3)[C@]3(O)C[C@H](OC(=O)[C@H](O)[C@@H](NC(=O)c4ccccc4)c4ccccc4)C(C)=C1C3(C)C)[C@]1(OC(C)=O)CO[C@@H]1C[C@@H]2O [paclitaxel] | greater resistance | – | –
COc1cccc2c1C(=O)c1c(O)c3c(c(O)c1C2=O)C[C@@](O)(C(=O)CO)C[C@@H]3O[C@H]1C[C@H](N)[C@H](O)[C@H](C)O1 [doxorubicin] | – | highly sensitive | –
COc1cc([C@@H]2c3cc4c(cc3[C@@H](O[C@@H]3O[C@@H]5CO[C@@H](C)O[C@H]5[C@H](O)[C@H]3O)[C@H]3COC(=O)[C@H]23)OCO4)cc(OC)c1O [etoposide] | greater sensitivity | – | –
CC[C@]1(O)C[C@H]2CN(CCc3c([nH]c4ccccc34)[C@@](C(=O)OC)(c3cc4c(cc3OC)N(C=O)[C@H]3[C@@](O)(C(=O)OC)[C@H](OC(C)=O)[C@]5(CC)C=CCN6CC[C@]43[C@@H]65)C2)C1 [vincristine] | greater resistance | – | –
CC/C(=C(\c1ccccc1)c1ccc(OCCN(C)C)cc1)c1ccccc1 [tamoxifen] | – | resistant | –
